Laboratory results published in PMC10914734 (Signal Transduction and Targeted Therapy, 2024).
Like-named read-outs stand apart in the source and are kept apart here.

Test system: SARS-CoV-2 XBB 1.16 variant
Set-up: species or system K18-hACE2 mice
Conditions: mouse; for Decrease of lung viral load (viral RNA copies) compared to the vehicle group: in vivo

| SMILES | Effect against SARS-CoV-2 XBB 1.16 variant in vivo (in words) | Decrease of lung viral load (viral RNA copies) compared to the vehicle group (10 mg/kg) [log10 units] | Decrease of lung viral load (viral RNA copies) compared to the vehicle group (20 mg/kg) [log10 units] |
| --- | --- | --- | --- |
| O=C(NCc1ccccc1)C(=O)[C@H](C[C@@H]1CCCNC1=O)NC(=O)[C@H](CC1CCCCC1)NC(=O)c1cc2ccccc2o1 [14b, N-((S)-1-(((S)-4-(benzylamino)-3,4-dioxo-1-((S)-2-oxopiperidin-3-yl)butan-2-yl)amino)-3-cyclohexyl-1-oxopropan-2-yl)benzofuran-2-carboxamide] | potent effect |  |  |
| O=C(NCc1ccccc1)C(=O)[C@H](C[C@@H]1CCCNC1=O)NC(=O)[C@H](Cc1ccc(F)cc1)NC(=O)c1cc2ccccc2o1 [14a, N-((S)-1-(((S)-4-(benzylamino)-3,4-dioxo-1-((S)-2-oxopiperidin-3-yl)butan-2-yl)amino)-3-(4-fluorophenyl)-1-oxopropan-2-yl)benzofuran-2-carboxamide] | potent effect | 2.0 | 2.6 |
